Reference: ChEMBL document CHEMBL1201862, “PubChem BioAssay data set” (2004)
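A five-concentration, 48-hour dose response in 96-well plates underlies each endpoint, interpolated linearly between surrounding concentrations. GI50 is the concentration that inhibits growth by half.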 Calls of active or inactive are those of the source. No stated cut-off is given here; in the data, active = GI50 up to about 1.1 µM and inactive = higher.

Tests used:
Assay in all cases: NCI tumour cell line growth inhibition, 48 h
NCI/ADR-RES = system: NCI/ADR-RES
HCT-15 = system: HCT-15
MDA-MB-231 = system: MDA-MB-231
A498 = system: A498
HT-29 = system: HT-29
MOLT-4 = system: MOLT-4
OVCAR-8 = system: OVCAR-8
SNB-75 = system: SNB-75
EKVX = system: EKVX
TK-10 = system: TK-10
SF-539 = system: SF-539
LOX IMVI = system: LOX IMVI
T47D = system: T47D
CCRF-CEM = system: CCRF-CEM
UACC-257 = system: UACC-257
RXF 393 = system: RXF 393
Malme-3M = system: Malme-3M
HOP-92 = system: HOP-92
UO-31 = system: UO-31
HCC 2998 = system: HCC 2998

SMILES | GI50 (NCI/ADR-RES) | GI50 (HCT-15) [µM] | GI50 (MDA-MB-231) | GI50 (A498) | GI50 (HT-29) | GI50 (MOLT-4) | GI50 (OVCAR-8) | GI50 (SNB-75) | GI50 (EKVX) | GI50 (TK-10) | GI50 (SF-539) | GI50 (LOX IMVI) | GI50 (T47D) | GI50 (CCRF-CEM) | GI50 (UACC-257) | GI50 (RXF 393) | GI50 (Malme-3M) | GI50 (HOP-92) | GI50 (UO-31) | GI50 (HCC 2998)
Cc1ccc(S(=O)(=O)O)cc1.c1cc2c(c(NC3=NCCN3)c1)CCCC2 | > 100 µM (inactive) | > 100 | > 100 µM (inactive) | > 100 µM (inactive) | 99.5 µM (inactive) | > 100 µM (inactive) | > 100 µM (inactive) | 89.3 µM (inactive) | > 100 µM (inactive) | > 100 µM (inactive) | > 100 µM (inactive) | > 100 µM (inactive) | > 100 µM (inactive) | > 100 µM (inactive) | > 100 µM (inactive) | > 100 µM (inactive) | > 100 µM (inactive) | > 100 µM (inactive) |  | 
Oc1ccc(/N=C/c2ccc(/C=N/c3ccc(O)cc3)cc2)cc1 | 14.8 µM (inactive) | 15 | 14.2 µM (inactive) | 24.3 µM (inactive) | 19.8 µM (inactive) | 3.88 µM (inactive) | 13.8 µM (inactive) | 16.7 µM (inactive) | 32.1 µM (inactive) | 18.1 µM (inactive) | 15.3 µM (inactive) | 16.1 µM (inactive) | 25.7 µM (inactive) | 6.41 µM (inactive) | 16.8 µM (inactive) | 17.1 µM (inactive) | 18 µM (inactive) | 24.7 µM (inactive) | 15.2 µM (inactive) | 
CN1C/C(=C\c2cccs2)C2=NC(=S)NC(c3cccs3)C2C1 (stereo not given) | 44.4 µM (inactive) | 77.6 | > 100 µM (inactive) | 61.8 µM (inactive) | 68.7 µM (inactive) | 19.5 µM (inactive) | 40.7 µM (inactive) |  | 56.4 µM (inactive) | 46.1 µM (inactive) |  | 67.9 µM (inactive) | 24.9 µM (inactive) | 19.7 µM (inactive) | 36.6 µM (inactive) | 88.7 µM (inactive) | 16 µM (inactive) | 33.6 µM (inactive) | 38.3 µM (inactive) | 93.8 µM (inactive)
CC(=O)N1C(Nc2ccccn2)CCN1c1ccccc1 (stereo not given) | > 10 µM (inactive) | > 10 | > 10 µM (inactive) |  | > 10 µM (inactive) | > 10 µM (inactive) | > 10 µM (inactive) | > 10 µM (inactive) | > 10 µM (inactive) | > 10 µM (inactive) | > 10 µM (inactive) | > 10 µM (inactive) | > 10 µM (inactive) | > 10 µM (inactive) | > 10 µM (inactive) | > 10 µM (inactive) | > 10 µM (inactive) | > 10 µM (inactive) | > 10 µM (inactive) | > 10 µM (inactive)
Cc1ccc([N+](=O)[O-])cc1S(=O)(=O)Nc1ccc(C2=NN(C(=O)c3ccccc3)C(c3cccs3)C2)cc1 (stereo not given) | 30.9 µM (inactive) | 21 | 16.3 µM (inactive) | 10.5 µM (inactive) | 26.3 µM (inactive) | 20.4 µM (inactive) | 22.4 µM (inactive) | 20.2 µM (inactive) | 21.5 µM (inactive) | 21.4 µM (inactive) | 18.2 µM (inactive) | 30.8 µM (inactive) | 9.42 µM (inactive) | 37.8 µM (inactive) | 21.5 µM (inactive) | 15.2 µM (inactive) | 19.1 µM (inactive) | 12.6 µM (inactive) | 24 µM (inactive) | 
CN(C)CCC(C(=O)C(C)(C)C)c1ccccn1 (stereo not given) | > 100 µM (inactive) | > 100 | > 100 µM (inactive) | > 100 µM (inactive) | > 100 µM (inactive) |  | > 100 µM (inactive) | > 100 µM (inactive) | > 100 µM (inactive) | > 100 µM (inactive) |  | > 100 µM (inactive) | > 100 µM (inactive) | > 100 µM (inactive) | > 100 µM (inactive) | > 100 µM (inactive) | > 100 µM (inactive) | > 100 µM (inactive) | > 100 µM (inactive) | > 100 µM (inactive)
CN(C)C(=O)c1nnsc1NN=O | > 100 µM (inactive) | > 100 | > 100 µM (inactive) |  | > 100 µM (inactive) | > 100 µM (inactive) | > 100 µM (inactive) | > 100 µM (inactive) | > 100 µM (inactive) |  |  | > 100 µM (inactive) | > 100 µM (inactive) | > 100 µM (inactive) | > 100 µM (inactive) | > 100 µM (inactive) | > 100 µM (inactive) | > 100 µM (inactive) | > 100 µM (inactive) | > 100 µM (inactive)
Cc1cccc2c1Oc1cc(Cl)ccc1C2NC(=O)CCN1CCOCC1 (stereo not given) | > 100 µM (inactive) | > 100 | > 100 µM (inactive) |  | 61.8 µM (inactive) | 49.4 µM (inactive) | > 100 µM (inactive) | 21.8 µM (inactive) | > 100 µM (inactive) | > 100 µM (inactive) | > 100 µM (inactive) | > 100 µM (inactive) | > 100 µM (inactive) | > 100 µM (inactive) | > 100 µM (inactive) |  |  | 18.1 µM (inactive) | 49.8 µM (inactive) | > 100 µM (inactive)
